We go through 25 compounds from patent publication US11117900B2 (Vertex Pharmaceuticals Incorporated, priority 2012, dated 2021).

In this test the test system is HCT116 colorectal cancer cells. The experiment in a line: Cisplatin sensitization assay (96 h MTS cell viability).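 Further: compound concentration needed to lower the IC50 of Cisplatin alone by a set fold.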 The class given is cell-based. As to conditions: Cisplatin sensitization value. A digest of the protocol:
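The MTS viability read, after 1 h with reagent, followed 96 h of co-treatment at 37° C. in 5% CO2. Both compound and cisplatin were titrated 2-fold from a 10 μM top final concentration in a complete concentration matrix on HCT116 cells. Scores +++/++/+ reflect cisplatin sensitization value ranges.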
`Nc1nn2cc(F)cnc2c1C(=O)Nc1cnccc1N1CCN2CCOC[C@@H]2C1` [I-N-115, (S)-2-amino-6-fluoro-N-(4-(hexahydropyrazino[2,1-c][1,4]oxazin-8(1H)-yl)pyridin-3-yl)pyrazolo[1,5-a]pyrimidine-3-carboxamide]: the “Cisplatin Sensitization Assay” value is “+++ (Compounds with a Cisplatin sensitization value of <0.02 μM are marked with “+++.”)”. As for `Nc1nn2cc(F)cnc2c1C(=O)Nc1cncc(F)c1N1CCN(C2CCOCC2)CC1` [I-N-121, 2-amino-6-fluoro-N-(5-fluoro-4-(4-(tetrahydro-2H-pyran-4-yl)piperazin-1-yl)pyridin-3-yl)pyrazolo[1,5-a]pyrimidine-3-carboxamide], the entry is “+++ (Compounds with a Cisplatin sensitization value of <0.02 μM are marked with “+++.”)”; as for `CN1CCN(c2ccncc2NC(=O)c2c(N)nn3cc(Cl)cnc23)CC1CO` (stereo not shown) [I-N-63, 2-amino-6-chloro-N-(4-(3-(hydroxymethyl)-4-methylpiperazin-1-yl)pyridin-3-yl)pyrazolo[1,5-a]pyrimidine-3-carboxamide], “++ (Compounds with a Cisplatin sensitization value >0.02 μM but <0.2 μM are marked with “++.”)”. Consider `CN1CCN(c2ccncc2NC(=O)c2c(N)nn3cc(F)cnc23)CC1` [I-N-3, 2-amino-6-fluoro-N-(4-(4-methylpiperazin-1-yl)pyridin-3-yl)pyrazolo[1,5-a]pyrimidine-3-carboxamide], for which the “Cisplatin Sensitization Assay” value is reported as “+++ (Compounds with a Cisplatin sensitization value of <0.02 μM are marked with “+++.”)”. Regarding `CN1CC2(CCN(c3ccncc3NC(=O)c3c(N)nn4cc(F)cnc34)CC2)CC1=O` [I-N-236, 2-amino-6-fluoro-N-(4-(2-methyl-3-oxo-2,8-diazaspiro[4.5]decan-8-yl)pyridin-3-yl)pyrazolo[1,5-a]pyrimidine-3-carboxamide], the “Cisplatin Sensitization Assay” value is given as “+++ (Compounds with a Cisplatin sensitization value of <0.02 μM are marked with “+++.”)”. Take `Nc1nn2cc(F)cnc2c1C(=O)Nc1cncc(F)c1N1CCN(C(=O)C2COC2)CC1` [I-N-278, 2-amino-6-fluoro-N-(5-fluoro-4-(4-(oxetane-3-carbonyl)piperazin-1-yl)pyridin-3-yl)pyrazolo[1,5-a]pyrimidine-3-carboxamide]: the “Cisplatin Sensitization Assay” value is given as “+++ (Compounds with a Cisplatin sensitization value of <0.02 μM are marked with “+++.”)”. As for `Nc1nn2cc(F)cnc2c1C(=O)Nc1cnccc1N1CCC(C(=O)N2CC(F)(F)C2)CC1` [I-G-80, 2-amino-N-(4-(4-(3,3-difluoroazetidine-1-carbonyl)piperidin-1-yl)pyridin-3-yl)-6-fluoropyrazolo[1,5-a]pyrimidine-3-carboxamide], the entry is “+++ (Compounds with a Cisplatin sensitization value of <0.02 μM are marked with “+++.”)”; as for `COC1CN(C2CCN(c3ccncc3NC(=O)c3c(N)nn4cc(Cl)cnc34)CC2)C1` [I-N-107, 2-amino-6-chloro-N-(4-(4-(3-methoxyazetidin-1-yl)piperidin-1-yl)pyridin-3-yl)pyrazolo[1,5-a]pyrimidine-3-carboxamide], “+++ (Compounds with a Cisplatin sensitization value of <0.02 μM are marked with “+++.”)”; as for `CN1CCN(C(=O)C2CCN(c3c(F)cncc3NC(=O)c3c(N)nn4cc(F)cnc34)CC2)C2CC21` (stereo not shown) [I-G-65, 2-amino-6-fluoro-N-(5-fluoro-4-(4-(5-methyl-2,5-diazabicyclo[4.1.0]heptane-2-carbonyl)piperidin-1-yl)pyridin-3-yl)pyrazolo[1,5-a]pyrimidine-3-carboxamide], “+++ (Compounds with a Cisplatin sensitization value of <0.02 μM are marked with “+++.”)”. Consider `CN(C)CCN1CCN(c2ccncc2NC(=O)c2c(N)nn3cc(Cl)cnc23)CC1` [I-N-49, 2-amino-6-chloro-N-(4-(4-(2-(dimethylamino)ethyl)piperazin-1-yl)pyridin-3-yl)pyrazolo[1,5-a]pyrimidine-3-carboxamide], for which the “Cisplatin Sensitization Assay” value was “+++ (Compounds with a Cisplatin sensitization value of <0.02 μM are marked with “+++.”)”.

On to `CC1(C)CCCN1c1ccncc1NC(=O)c1c(N)nn2cc(F)cnc12` [I-N-220, 2-amino-N-(4-(2,2-dimethylpyrrolidin-1-yl)pyridin-3-yl)-6-fluoropyrazolo[1,5-a]pyrimidine-3-carboxamide], for which the “Cisplatin Sensitization Assay” value is listed as “++ (Compounds with a Cisplatin sensitization value >0.02 μM but <0.2 μM are marked with “++.”)”. As for `CN1CCC[C@@H]1C(=O)N1CCN(c2ccncc2NC(=O)c2c(N)nn3cc(F)cnc23)CC1` [I-N-199, (R)-2-amino-6-fluoro-N-(4-(4-(1-methylpyrrolidine-2-carbonyl)piperazin-1-yl)pyridin-3-yl)pyrazolo[1,5-a]pyrimidine-3-carboxamide], the entry is “+++ (Compounds with a Cisplatin sensitization value of <0.02 μM are marked with “+++.”)”; as for `Nc1nn2cc(F)cnc2c1C(=O)Nc1cncc(F)c1N1CCC(C(=O)N2CC(N3CCCC3)C2)CC1` [I-G-43, 2-amino-6-fluoro-N-(5-fluoro-4-(4-(3-(pyrrolidin-1-yl)azetidine-1-carbonyl)piperidin-1-yl)pyridin-3-yl)pyrazolo[1,5-a]pyrimidine-3-carboxamide], “+++ (Compounds with a Cisplatin sensitization value of <0.02 μM are marked with “+++.”)”. As for `CN1CCN(C(=O)C2(C)CCN(c3c(F)cncc3NC(=O)c3c(N)nn4cc(F)cnc34)CC2)CC1` [I-G-54, 2-amino-6-fluoro-N-(5-fluoro-4-(4-methyl-4-(4-methylpiperazine-1-carbonyl)piperidin-1-yl)pyridin-3-yl)pyrazolo[1,5-a]pyrimidine-3-carboxamide], the entry is “+++ (Compounds with a Cisplatin sensitization value of <0.02 μM are marked with “+++.”)”; as for `Nc1nn2cc(F)cnc2c1C(=O)Nc1cnccc1N1CCN([C@@H]2CCOC2)CC1` [I-N-10, (R)-2-amino-6-fluoro-N-(4-(4-(tetrahydrofuran-3-yl)piperazin-1-yl)pyridin-3-yl)pyrazolo[1,5-a]pyrimidine-3-carboxamide], “++ (Compounds with a Cisplatin sensitization value >0.02 μM but <0.2 μM are marked with “++.”)”; as for `Nc1nn2cc(Cl)cnc2c1C(=O)Nc1cnccc1N1CCN2CCC1CC2` [I-N-56, N-(4-(1,4-diazabicyclo[3.2.2]nonan-4-yl)pyridin-3-yl)-2-amino-6-chloropyrazolo[1,5-a]pyrimidine-3-carboxamide], “++ (Compounds with a Cisplatin sensitization value >0.02 μM but <0.2 μM are marked with “++.”)”. The value for `Nc1nn2cc(F)cnc2c1C(=O)Nc1cnccc1N1CC(=O)N2CCCC2C1` (stereo not shown) [I-N-222, 2-amino-6-fluoro-N-(4-(4-oxohexahydropyrrolo[1,2-a]pyrazin-2(1H)-yl)pyridin-3-yl)pyrazolo[1,5-a]pyrimidine-3-carboxamide] was “++ (Compounds with a Cisplatin sensitization value >0.02 μM but <0.2 μM are marked with “++.”)”; that for `N#CCc1cnc2c(C(=O)Nc3cnccc3OC3CCOCC3)c(N)nn2c1` [I-O-30, 2-amino-6-(cyanomethyl)-N-(4-((tetrahydro-2H-pyran-4-yl)oxy)pyridin-3-yl)pyrazolo[1,5-a]pyrimidine-3-carboxamide] was “+++ (Compounds with a Cisplatin sensitization value of <0.02 μM are marked with “+++.”)”; that for `CC(C)(C)NC(=O)C1CCN(c2c(F)cncc2NC(=O)c2c(N)nn3cc(F)cnc23)CC1` [I-G-19, 2-amino-N-(4-(4-(tert-butylcarbamoyl)piperidin-1-yl)-5-fluoropyridin-3-yl)-6-fluoropyrazolo[1,5-a]pyrimidine-3-carboxamide] was “++ (Compounds with a Cisplatin sensitization value >0.02 μM but <0.2 μM are marked with “++.”)”. Regarding `N#CCc1cnc2c(C(=O)Nc3cnccc3N3CCOC(CN)C3)c(N)nn2c1` (stereo not shown) [I-N-90, 2-amino-N-(4-(2-(aminomethyl)morpholino)pyridin-3-yl)-6-(cyanomethyl)pyrazolo[1,5-a]pyrimidine-3-carboxamide], the “Cisplatin Sensitization Assay” value was “+ (Compounds with a Cisplatin sensitization value >0.2 μM but <5 μM are marked with “+.”)”. As for `CN1C[C@@H]2CCN(c3ccncc3NC(=O)c3c(N)nn4cc(F)cnc34)C[C@@H]2C1=O` [I-N-224, 2-amino-6-fluoro-N-(4-((3aR,7aR)-2-methyl-3-oxohexahydro-1H-pyrrolo[3,4-c]pyridin-5(6H)-yl)pyridin-3-yl)pyrazolo[1,5-a]pyrimidine-3-carboxamide], the entry is “+ (Compounds with a Cisplatin sensitization value >0.2 μM but <5 μM are marked with “+.”)”; as for `Nc1nn2cc(Cl)cnc2c1C(=O)Nc1cnccc1OC1CCCNC1` (stereo not shown) [I-O-75, 2-amino-6-chloro-N-(4-(piperidin-3-yloxy)pyridin-3-yl)pyrazolo[1,5-a]pyrimidine-3-carboxamide], “++ (Compounds with a Cisplatin sensitization value >0.02 μM but <0.2 μM are marked with “++.”)”; as for `CN1CCC[C@H]1COc1ccncc1NC(=O)c1c(N)nn2cc(Cl)cnc12` [I-O-50, (S)-2-amino-6-chloro-N-(4-((1-methylpyrrolidin-2-yl)methoxy)pyridin-3-yl)pyrazolo[1,5-a]pyrimidine-3-carboxamide], “+ (Compounds with a Cisplatin sensitization value >0.2 μM but <5 μM are marked with “+.”)”. As for `COC(=O)N1CCN(c2c(F)cncc2NC(=O)c2c(N)nn3cc(F)cnc23)CC1` [I-N-261, methyl-4-(3-(2-amino-6-fluoropyrazolo[1,5-a]pyrimidine-3-carboxamido)-5-fluoropyridin-4-yl)piperazine-1-carboxylate], the “Cisplatin Sensitization Assay” value is “+++ (Compounds with a Cisplatin sensitization value of <0.02 μM are marked with “+++.”)”.

`COc1ccncc1NC(=O)c1c(N)nn2cc(Cl)cnc12` [I-O-57, 2-amino-6-chloro-N-(4-methoxypyridin-3-yl)pyrazolo[1,5-a]pyrimidine-3-carboxamide]: the “Cisplatin Sensitization Assay” value is “+++ (Compounds with a Cisplatin sensitization value of <0.02 μM are marked with “+++.”)”.
